Read-outs that look alike come from different tables or passages of the source.
How the values were obtained:
[1] = system: Echinochloa crus-galli (L.) P.BEAUV. (barnyardgrass); assay: In-water applied herbicidal activity in transplanted paddy rice (Example 17); format: in vivo; settings: for GR50 / GR80 / GR90: ECHCG, in-water applied, probit analysis; for GR50: 50% growth reduction; for GR80: 80% growth reduction; for GR90: 90% growth reduction; for pest or weed control at 17.5 g/ha / pest or weed control at 35 g/ha: Echinochloa crus-galli, 504 h, read-out: Visual Injury (%) ECHCG; for pest or weed control at 35 g/ha: 35 g ae/ha
Procedure, shortened: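 Ester forms of test compounds, in acetone diluted with aqueous Agri-dex (final 1.25% v/v crop oil concentrate), were injected into the flood water of paddy pots holding weeds or rice at the 2nd–3rd leaf stage in mud (pH ~7.3–7.8). Visual injury versus untreated plants was scored 0–100% after 3 weeks in greenhouse (~29/26 °C). GR50/GR80 were derived by probit analysis.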

[2] = system: Echinochloa colonum (L.) LINK (junglerice); assay: Postemergence foliar-applied herbicidal activity in direct seeded rice (Example 16); format: in vivo; settings: for GR50 / GR80 / GR90: ECHCO, probit analysis; for GR50: 50% growth reduction; for GR80: 80% growth reduction; for GR90: 90% growth reduction; for pest or weed control at 8.75 g/ha: Echinochloa colona, post-emergence, 504 h, rice cropping systems, 8.75 g ae/ha, 21 DAA, may represent multiple trials, read-out: Visual Injury (%) ECHCO
Procedure, shortened: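 Greenhouse plants at 2nd–3rd true leaf stage (10–17 d, ~29/26 °C, 14-h photoperiod) sprayed postemergence with ester forms in acetone–DMSO plus 1.25% crop oil concentrate at 187 L/ha. Visual injury scored 0–100% versus untreated plants after 3 weeks; GR50/GR80 derived by probit analysis.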

[3] = rice cropping systems, in-water applied (paddy), 21 DAA, may represent multiple trials
[4] = rice cropping systems, in-water applied (paddy), 17.5 g ae/ha, 21 DAA, may represent multiple trials

**Q.** With `COc1c(Cl)ccc(-c2nc(C(=O)OCc3ccccc3)c(Cl)c(N)c2F)c1F` [Compound 1, benzyl 4-amino-3-chloro-6-(4-chloro-2-fluoro-3-methoxyphenyl)-5-fluoropicolinate] as the molecule, how does the GR50 [1] read?
**A.** Its GR50 is 10.9 g ae/ha.

**Q.** And the GR80 [1]?
**A.** The GR80 was 21.8 g ae/ha.

**Q.** And the GR90 [1]?
**A.** Its GR90 is 31.2 g ae/ha.

**Q.** What about the pest or weed control at 17.5 g/ha [1] of the same molecule?
**A.** Its pest or weed control at 17.5 g/ha is 87%.

**Q.** What about the GR50 [2] of the same molecule?
**A.** The GR50 was 2.4 g ae/ha.

**Q.** And the GR80 [2]?
**A.** Its GR80 is 7.8 g ae/ha.

**Q.** What about the GR90 [2] of the same molecule?
**A.** Its GR90 is 14.4 g ae/ha.

**Q.** How did the pest or weed control at 35 g/ha [1, 3] turn out when `COc1c(Cl)ccc(-c2cc(N)c(Cl)c(C(=O)OCc3ccccc3)n2)c1F` [Compound 39] was run?
**A.** The pest or weed control at 35 g/ha was 100%.

**Q.** For `Nc1c(F)c(-c2ccc(C3CC3)cc2)nc(C(=O)OCc2ccccc2)c1Cl` [Compound 42, benzyl 4-amino-3-chloro-6-(4-cyclopropylphenyl)-5-fluoropicolinate], which pest or weed control at 17.5 g/ha [1, 4] is on record?
**A.** Its pest or weed control at 17.5 g/ha is 70%.

**Q.** What about the pest or weed control at 8.75 g/ha [2] of the same molecule?
**A.** Its pest or weed control at 8.75 g/ha is 85%.

**Q.** With `COC(=O)c1nc(-c2ccc(C3CC3)cc2)c(F)c(N)c1Cl` [Compound B, methyl 4-amino-3-chloro-6-(4-cyclopropylphenyl)-5-fluoropicolinate] as the molecule, how does the pest or weed control at 17.5 g/ha [1, 4] read?
**A.** The pest or weed control at 17.5 g/ha was 10%.

**Q.** And the pest or weed control at 8.75 g/ha [2]?
**A.** The pest or weed control at 8.75 g/ha was 50%.

**Q.** Which pest or weed control at 35 g/ha [1, 3] does the source give for `COC(=O)c1nc(-c2ccc(Cl)c(OC)c2F)nc(N)c1OC` [Compound F, methyl 6-amino-2-(4-chloro-2-fluoro-3-methoxyphenyl)-5-methoxypyrimidine-4-carboxylate, reference compound] here?
**A.** Its pest or weed control at 35 g/ha is 0%.

**Q.** For `COC(=O)c1nc(-c2ccc(Cl)c(OC)c2F)cc(N)c1Cl` [Compound G, methyl 4-amino-3-chloro-6-(4-chloro-2-fluoro-3-methoxyphenyl)picolinate, reference compound], which pest or weed control at 35 g/ha [1, 3] is on record?
**A.** The pest or weed control at 35 g/ha was 74%.

**Q.** For `COC(=O)c1nc(-c2ccc(Cl)c(OC)c2F)c(F)c(N)c1Cl` [E, methyl 4-amino-3-chloro-6-(4-chloro-2-fluoro-3-methoxyphenyl)-5-fluoropicolinate, reference compound], which GR50 [1] is on record?
**A.** Its GR50 is 33.2 g ae/ha.

**Q.** And the GR80 [1]?
**A.** Its GR80 is 58.5 g ae/ha.

**Q.** What about the GR90 [1] of the same molecule?
**A.** The GR90 was 78.7 g ae/ha.

**Q.** And the pest or weed control at 17.5 g/ha [1, 4]?
**A.** Its pest or weed control at 17.5 g/ha is 26%.

**Q.** What about the GR50 [2] of the same molecule?
**A.** The GR50 was less than 4.38 g ae/ha.

**Q.** And the GR80 [2]?
**A.** The GR80 was 14.6 g ae/ha.

**Q.** What about the GR90 [2] of the same molecule?
**A.** Its GR90 is 55.6 g ae/ha.
